These are literature values, as cited in US20160175482A1, “COMPOSITION AND DELIVERY SYSTEM” (LOCATE THERAPEUTICS LIMITED, priority 2013, published 2016).

By log P is commonly meant a log measure of how a compound divides between an organic and an aqueous phase. Regarding `Cc1ccc(C)c(N=Nc2cc(C)c(N=Nc3c(O)ccc4ccccc34)cc2C)c1` [Oil Red-O], the “log P” value is given as 6.85.
